Measurements taken from patent US8119662B2, “Crystalline compounds” (Generics [UK] Limited, priority 2005, dated 2012).
Structures can show the parent of a compound that is named as a salt.

What was measured:
[1] = Polymorphic stability following grinding and tablet punching; type: physicochemical
[2] = Compressibility for dosage form preparation (e.g. tablets); type: physicochemical

C[C@H](CSC(=O)c1ccccc1)C(=O)N1C[C@@H](Sc2ccccc2)C[C@H]1C(=O)O [(4S)-1-[(2S)-3-(benzoylthio)-2-methylpropionyl]-4-(phenylthio)-L-proline calcium salt]
stability (changes in polymorphic form) [1]: no changes in polymorphic form | compressibility [2]: excellent compressibility
